How the values were obtained:
[1] = biological target: T1, rThC (recombinant thrombocorticin, ThC) (unclassified Corticium (in: sponges), UniProt C0HM62); experiment: inhibition of rThC-induced Ba/F3-HuMpl cell proliferation; assay type: cell-based; conditions: rThC 1 μg/mL, RPMI-1640 with 10% FBS, 37 °C, 4 days; competes with MPL glycan
T1 construct: N-terminal 6xHis-tag (modified pET28), expressed in E. coli BL21(DE3); 131 residues, 14 kDa; homodimer, sugar site at protomer interface
T1 sequence (C0HM62 1-131): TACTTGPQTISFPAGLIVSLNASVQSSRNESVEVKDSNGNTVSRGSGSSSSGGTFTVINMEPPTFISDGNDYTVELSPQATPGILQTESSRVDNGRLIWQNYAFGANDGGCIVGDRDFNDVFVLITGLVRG

[2] = biological target: T1, rThC (recombinant thrombocorticin, ThC); experiment: isothermal titration calorimetry; assay type: binding; conditions: 5 mM CaCl2, 20 mM HEPES-NaOH pH 8.0, 200 mM NaCl, 25 °C; Ca2+-mediated site at dimer interface
[3] = biological target: human thrombopoietin receptor MPL on Ba/F3-HuMpl cells (human) (UniProt P40238)
BC2L-C-CTD = biological target: T2, BC2L-C-CTD (Burkholderia cenocepacia, UniProt B4EH86); experiment: isothermal titration calorimetry; assay type: binding; conditions: 20 mM HEPES-NaOH pH 8.0, 200 mM NaCl, 25 °C
T2 construct: gene BCAM0185; C-terminal domain of BC2L-C, N-terminal 6xHis-tag (modified pET28), expressed in E. coli BL21(DE3)
Description: isothermal titration calorimetry on BC2L-C-CTD | BC2L-C-CTD bound only to mannose

[4] = biological target: T3, human thrombopoietin receptor MPL on Ba/F3-HuMpl cells (human, UniProt P40238 26-635); experiment: cell-based or functional assay
T3 sequence (looked up): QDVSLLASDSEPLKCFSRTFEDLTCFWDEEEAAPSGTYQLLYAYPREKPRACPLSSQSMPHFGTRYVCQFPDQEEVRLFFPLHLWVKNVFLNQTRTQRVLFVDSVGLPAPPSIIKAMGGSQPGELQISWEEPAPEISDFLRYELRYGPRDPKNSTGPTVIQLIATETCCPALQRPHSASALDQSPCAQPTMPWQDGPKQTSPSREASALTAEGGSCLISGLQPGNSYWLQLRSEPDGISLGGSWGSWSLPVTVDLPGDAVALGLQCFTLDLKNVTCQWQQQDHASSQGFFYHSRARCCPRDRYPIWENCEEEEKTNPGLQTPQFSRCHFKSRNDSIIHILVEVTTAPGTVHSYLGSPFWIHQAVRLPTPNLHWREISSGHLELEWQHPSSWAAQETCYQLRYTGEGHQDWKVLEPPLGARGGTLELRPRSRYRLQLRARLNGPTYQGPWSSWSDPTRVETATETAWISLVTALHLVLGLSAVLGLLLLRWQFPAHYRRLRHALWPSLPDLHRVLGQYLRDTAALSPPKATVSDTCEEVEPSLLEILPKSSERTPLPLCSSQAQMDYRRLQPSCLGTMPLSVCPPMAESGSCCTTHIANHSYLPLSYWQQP

## C[C@@H]1OC(O)[C@@H](O)[C@H](O)[C@@H]1O (stereo partly drawn) [L-fucose]
[1]
  IC50: 22.8 µM
[2]
  Kd: 4.72 µM

## PA-IIL (from UniProt Q9HYN5 1-115) (natural protein)
[3]
  proliferation of Ba/F3-HuMpl cells, EC50: 18.1 µg/mL

## OC[C@H]1OC(O)[C@@H](O)[C@@H](O)[C@@H]1O (stereo partly drawn) [D-mannose]
[1]
  IC50: 6460 µM
BC2L-C-CTD
  Kd: 17.7 ± 0.32 µM
[2]
  KD: 66.2 × 10 µM

B1: N-terminal His-tagged recombinant thrombocorticin (wild type) (natural protein, UniProt C0HM62 1-131, looked up)
chain: T1 sequence (C0HM62 1-131)
[4]
  proliferation of Ba/F3-HuMpl cells, EC50: 0.26 µg/mL

Reference: paper PMC9700728 (Nature Communications, 2022)
